Assay results: the supplement of paper PMC3974653
Structures can show the parent of a compound that is named as a salt.

System: MTT (mouse pheochromocytoma)
Assay: IC50 of cell viability (ATP content)
Settings: (24 or 48 h)
Method in brief: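 MTT mouse pheochromocytoma cells in white 1536-well plates were treated for 24 or 48 hrs with library compounds at 8 final concentrations from 0.5 nM to 46 µM. ATP content was measured with CellTiter-Glo luminescence, using positive-control wells as 100% and DMSO wells as 0%. IC50 came from a four-parameter logistic fit.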

Row | SMILES | IC50 of cell viability [µM]
1 | CC(Cc1ccccc1)(NC(=O)CN)c1ccccc1 (centres undefined) [Remacemide hydrochloride] | > 46
2 | CCOc1cc(CC(=O)N[C@@H](CC(C)C)c2ccccc2N2CCCCC2)ccc1C(=O)O [Repaglinide] | > 46
3 | COC(=O)[C@@H]1[C@H]2C[C@H]3c4[nH]c5cc(OC)ccc5c4CCN3C[C@@H]2C[C@@H](OC(=O)/C=C\c2cc(OC)c(OC)c(OC)c2)[C@@H]1OC [Rescinnamin] | > 46
4 | COC(=O)[C@H]1[C@H]2C[C@@H]3c4[nH]c5cc(OC)ccc5c4CCN3C[C@H]2C[C@@H](OC(=O)c2cc(OC)c(OC)c(OC)c2)[C@@H]1OC [Reserpine] | > 46
5 | Oc1cccc(O)c1 [Resorcinol] | > 46
6 | Oc1ccc(/C=C\c2cc(O)cc(O)c2)cc1 [Resveratrol] | > 46
7 | CC1=C(/C=C/C(C)=C/C=C/C(C)=C/CO)C(C)(C)CCC1 [Retinol] | > 46
8 | CC(=O)OC/C=C(C)/C=C/C=C(C)/C=C/C1=C(C)CCCC1(C)C [Retinyl acetate] | > 46
9 | CCCCCCCCCCCCCCCC(=O)OC/C=C(C)/C=C/C=C(C)/C=C/C1=C(C)CCCC1(C)C [Retinyl palmitate] | > 46
10 | CCCCCCC(O)C/C=C\CCCCCCCC(=O)O (centres undefined) [Ricinoleic acid] | > 46
11 | CO[C@H]1/C=C/O[C@@]2(C)Oc3c(C)c(O)c4c(c3C2=O)C2=NC3(CCN(CC(C)C)CC3)NC2=C(NC(=O)/C(C)=C\C=C\[C@H](C)[C@H](O)[C@@H](C)[C@@H](O)[C@@H](C)[C@H](OC(C)=O)[C@@H]1C)C4=O [Rifabutin] | > 46
12 | CC(N)C12CC3CC(CC(C3)C1)C2 (centres undefined) [Rimantadine hydrochloride] | > 46
13 | CCC(=O)[C@@]1(C)[C@H](C)C[C@@H]2[C@@H]3CC\C4=C\C(=O)\C=C/[C@@]4(C)[C@H]3[C@H](O)C[C@@]12C [Rimexolone] | > 46
14 | CCCCCOc1ccc(C2SC(=O)NC2=O)cc1OCC (centres undefined) [Risarestat] | > 46
15 | CCCOC(=O)c1ccc(N)cc1 [Risocaine] | > 46
16 | CC/1=C(\CCN2CCC(CC2)=C(C3=CC=C(F)C=C3)C4=CC=C(F)C=C4)C(=O)N/5\C=C/SC5=N1 [Ritanserin] | > 46
17 | C[C@H](NCCc1ccc(O)cc1)[C@@H](O)c1ccc(O)cc1 [Ritodrine hydrochloride] | > 46
18 | CC(C)c1nc(CN(C)C(=O)NC(C(=O)NC(Cc2ccccc2)CC(O)C(Cc2ccccc2)NC(=O)OCc2cncs2)C(C)C)cs1 (centres undefined) [Ritonavir] | > 46
19 | c1ccc(C2(N3CCCC3)CCCCC2)cc1 [Rolicyclidine] | > 46
20 | O=[N+]([O-])c1cc([As](=O)(O)O)ccc1O [Roxarsone] | > 46
21 | OC1=CC2=C([NH]C=C2CCCCN3CC\C(=C/C3)C4=CC=CC=C4)C=C1 [Roxindole hydrochloride] | > 46
22 | C[C@H](N)C(=O)c1ccccc1 [S(-)-Cathinone hydrochloride] | > 46
23 | CCN(CC)C(=O)N[C@@H]1C=C2c3cccc4[nH]cc(c34)C[C@H]2N(C)C1 [S(-)-LISURIDE] | > 46
24 | CN[C@H](C)Cc1ccccc1 [S-(+)-Methamphetamine] | > 46
25 | C=CCC1([C@@H](C)CCC)C(=O)NC(=O)NC1=O [S-(-)-Secobarbital] | > 46
26 | CCOC(=O)/C=C(C)/C=C/CC(C)CCCC(C)C (centres undefined) [S-HYDROPRENE] | > 46
27 | O=C/1O[C@@]23CC(/C=C\C2=C1)N4CCCCC34 (some centres undefined) [SECURININE] | > 46
28 | Oc1ccc([C@H]2CNCc3c2ccc(O)c3O)cc1O [SELANDOPAM HYDROCHLORIDE HYDRATE (ZELANDOPAM)] | > 46
29 | CC(C)CC(N(C)C)C1(c2ccc(Cl)cc2)CCC1.Cl (centres undefined) [SIBUTRAMINE HYDROCHLORIDE] | > 46
30 | CCNc1nc(Cl)nc(NCC)n1 [SIMAZINE] | > 46

Second part, the molecule after the results:

Row | IC50 of cell viability [µM] | SMILES
31 | > 46 | CC(C)c1nc(CN(C)C(=O)N[C@H](C(=O)N[C@@H](Cc2ccccc2)C[C@H](O)[C@H](Cc2ccccc2)NC(=O)OCc2cncs2)C(C)C)cs1 [Ritonavir]
32 | > 46 | Cc1cccc(C)c1N(CCCc1cccnc1)C(=O)[C@@H](C)N [Ro 22-9194]
33 | > 46 | COc1ccc([C@@H]2CNC(=O)C2)cc1OC1CCCC1 [Rolipram]
34 | > 46 | CN(C)[C@@H]\1[C@@H]2C[C@H]3\C(=C(\O)[C@@]2(O)C(=O)\C(=C1O)C(=O)NCN4CCCC4)C(=O)C5=C(C=CC=C5O)[C@@]3(C)O [Rolitetracycline]
35 | > 46 | Cc1nc(-c2ccc(Cl)cc2)oc1COC(C)(C)C(=O)O [Romazarit]
36 | > 46 | CC(=O)O[C@H](C)OC(=O)[C@@H](C)c1ccc(-c2ccccc2)c(F)c1 [Ropiopn]
37 | > 46 | CC[C@H]1OC(=O)C[C@@H](O)[C@H](C)[C@@H](O[C@@H]2O[C@H](C)C[C@H](N(C)C)[C@@H]2O)[C@@H](CC=O)C[C@@H](C)C(=O)/C=C\[C@]2(C)O[C@H]2[C@@H]1C [Rosaramicin]
38 | > 46 | O=C([O-])c1c(Cl)c(Cl)c(Cl)c(Cl)c1-c1c2cc(I)c(=O)c(I)c-2oc2c(I)c([O-])c(I)cc12 [Rose Bengal sodium]
39 | > 46 | CC[C@@H]1OC(=O)[C@H](C)[C@H](O[C@H]2C[C@](C)(OC)[C@H](O)[C@H](C)O2)[C@H](C)[C@H](O[C@@H]2O[C@@H](C)C[C@@H](N(C)C)[C@H]2O)[C@](C)(O)C[C@H](C)/C(=N/OCOCCOC)[C@H](C)[C@H](O)[C@]1(C)O [Roxithromycin]
40 | > 46 | CC[C@H]1OC(=O)[C@H](C)[C@@H](OC2CC(C)(OC)C(O)C(C)O2)[C@H](C)[C@@H](OC2OC(C)CC(N(C)C)C2O)[C@](C)(O)C[C@@H](C)/C(=N\OCOCCOC)[C@H](C)[C@@H](O)[C@]1(C)O (some centres undefined) [Roxithromycin]
41 | > 46 | C[C@@H]1O[C@@H](OC[C@H]2O[C@@H](Oc3c(-c4ccc(O)c(O)c4)oc4cc(O)cc(O)c4c3=O)[C@H](O)[C@@H](O)[C@@H]2O)[C@H](O)[C@H](O)[C@H]1O [Rutin]
42 | > 46 | CCN1CCC[C@H]1CNC(=O)c1c(O)c(Cl)cc(Cl)c1OC [S(-)-RACLOPRIDE]
43 | > 46 | CCc1cc(Cl)c(OC)c(C(=O)NC[C@H]2CCCN2CC)c1O [S(-)Eticlopride hydrochloride]
44 | > 46 | CC(/C=C/C=C(\C)C(=O)O[C@@H]1O[C@H](CO[C@@H]2O[C@H](CO)[C@@H](O)[C@H](O)[C@H]2O)[C@@H](O)[C@H](O)[C@H]1O)=C\C=C\C=C(C)\C=C\C=C(/C)C(=O)O[C@@H]1O[C@H](CO[C@@H]2O[C@H](CO)[C@@H](O)[C@H](O)[C@H]2O)[C@@H](O)[C@H](O)[C@H]1O [SAFFRON]
45 | > 46 | CC(CCc1ccc2c(c1)OCO2)NN (centres undefined) [SAFRAZINE HYDROCHLORIDE]
46 | > 46 | CC(C)(C)NCC(O)c1ccc(O)c(CO)c1 (centres undefined) [SALBUTAMOL]
47 | > 46 | OCc1ccccc1O [SALICYL ALCOHOL]

Row | IC50 of cell viability [µM] | SMILES
48 | > 46 | NC(=O)c1ccccc1O [SALICYLAMIDE]
49 | > 46 | O=C(Oc1ccccc1C(=O)O)c1ccccc1O [SALSALATE]
50 | > 46 | Cl.OC(=O)C/1=C/N(C2=CC=C(F)C=C2)C3=C(C=C(F)C(=C3)N4CCNCC4)C1=O [SARAFLOXACIN HYDROCHLORIDE]
51 | > 46 | CNCC(=O)NC(CCCNC(=N)N)C(=O)NC(C(=O)NC(Cc1ccc(O)cc1)C(=O)NC(C(=O)NC(Cc1cnc[nH]1)C(=O)N1CCCC1C(=O)NC(C)C(=O)O)C(C)C)C(C)C (centres undefined) [SARALASIN ACETATE]
52 | > 46 | COc1cccc(CCc2ccccc2OCC(CN(C)C)OC(=O)CCC(=O)O)c1 (centres undefined) [SARPOGRELATE HYDROCHLORIDE]
53 | > 46 | Cc1ccccc1/N=N/c1ccc(/N=N/c2c(O)ccc3ccccc23)c(C)c1 [SCARLET RED]
54 | > 46 | C=C1CC[C@H](O)C/C1=C/C=C1\CCC[C@]2(C)[C@@H]([C@H](C)CC[C@@H](O)C(C)(C)O)CC[C@@H]12 [SECALCIFEROL]
55 | > 46 | Cc1ncc([N+](=O)[O-])n1CC(C)O (centres undefined) [SECNIDAZOLE]
56 | > 46 | COC1CC(O[C@H]2/C(C)=C/CC3CC(C[C@]4(CCC(C)C(C5CCCCC5)O4)O3)OC(=O)[C@H]3C=C(C)/C(=N/O)C4OC/C(=C\C=C\[C@@H]2C)[C@@]43O)OC(C)C1O (some centres undefined) [SELAMECTIN]
57 | > 46 | C[Se]CC[C@H](N)C(=O)O [SELENOMETHIONINE, L-]
58 | > 46 | C[Se]CCC(N)C(=O)O (centres undefined) [SELENOMETHIONINE, SE-75]
59 | > 46 | Cc1cc(C)c(/C=C2\C(=O)Nc3ccccc32)[nH]1 [SEMAXANIBUM]
60 | > 46 | CC1CCC(NC(=O)N(CCCl)N=O)CC1 (centres undefined) [SEMUSTINE]
61 | > 46 | CC1=C(C)C(=O)C(C(CCCCCC(=O)O)c2ccccc2)=C(C)C1=O (centres undefined) [SERATRODAST]
62 | > 46 | FCOC(C(F)(F)F)C(F)(F)F [SEVOFLURANE]
63 | > 46 | CC1=C(NNC(=O)C1)C2=CC=C(N\N=C(\C#N)C#N)C=C2 [SIMENDANUM]
64 | > 46 | Nc1c[n+](N2CCOCC2)no1 [SIN-1 chloride]
